This note sets out measurements from patent publication US11597708B2, “Inhibitors of heat shock factors and uses thereof” (HSF Pharmaceuticals SA, priority 2016, dated 2023).

In one test the target is T1, HSF1 (Homo sapiens, UniProt Q00613).
T1 construct: functionally linked to an hsp70b promoter and therefore controlled by endogenous HSF1; endogenous in cells; host or cells: HeLa cells / HeLa-derived cell line Z74
T1 sequence (Q00613 1-529): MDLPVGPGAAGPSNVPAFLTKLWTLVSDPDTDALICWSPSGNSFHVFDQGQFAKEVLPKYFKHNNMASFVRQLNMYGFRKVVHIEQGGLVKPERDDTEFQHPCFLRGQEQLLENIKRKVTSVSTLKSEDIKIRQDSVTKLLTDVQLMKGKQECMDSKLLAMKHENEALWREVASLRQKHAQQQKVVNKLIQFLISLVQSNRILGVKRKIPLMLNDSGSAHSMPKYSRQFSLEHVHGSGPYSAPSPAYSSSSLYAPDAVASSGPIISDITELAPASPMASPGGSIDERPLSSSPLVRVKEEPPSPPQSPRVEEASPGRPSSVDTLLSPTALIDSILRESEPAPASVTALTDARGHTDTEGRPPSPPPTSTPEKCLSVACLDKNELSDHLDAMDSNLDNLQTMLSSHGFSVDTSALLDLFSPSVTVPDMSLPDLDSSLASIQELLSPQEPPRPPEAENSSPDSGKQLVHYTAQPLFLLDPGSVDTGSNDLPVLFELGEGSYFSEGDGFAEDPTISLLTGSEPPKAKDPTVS
Description: Z74 cell-based reporter assay: heat-induced RLuc expression controlled by endogenous HSF1. The note with it: Z74 cells; for inhibition at 12.5 µM: 12.5 μM IHSF, negative values marked *: compound enhanced rLuc activity, read-out: Inhibition of HSF1 activity at 12.5 μM IHSF [RLuc] (%); for inhibition at 25 µM: 25 μM IHSF, 2 h exposure, 43° C. 30 min, 6 h at 37° C., read-out: Inhibition of HSF1 activity at 25 μM IHSF [RLuc] (%); for IC50: inhibition of HSF1 activity [RLuc]. From the text: For screening this sublibrary, a cell-based assay was developed. We opted for a cell-based assay, because a cell-free assay would have had to be a DNA-binding assay. Such an assay would have limited discovery to molecules capable of interfering with the DNA-binding function of HSF1. This was thought to be too narrow a focus, considering that three of the four cavities identified in the HSF1 DNA-binding domain are not near the DNA interaction region. A straightforward cell-based assay, in which a HSF1-responsive gene would be assayed, was considered likely to be over-inclusive. Compounds would be scored as hits that inhibit any factor that is involved in HSF1 activation or prevents HSF1 deactivation. These factors include protein kinases, activators of protein phosphatases, factors affecting HSF1 mRNA stability, HSP90, HDAC6, etc. For developing a more discriminating cell-based assay, advantage was taken of the modular nature of HSF1. […] The cell-based assay developed (see below for the particular format employed) compared transactivation by wild type HSF1 and chimeric HSF1 in cells exposed to an HSF1-activating heat treatment in the presence of a sublibrary compound. A compound was scored as a hit, if it inhibited the activity of wild type HSF1 but not of chimeric HSF1.
The cell-based assay made use of HeLa-derived cell line Z74 that stably contains a gene for chimeric transcription factor LexA-(human) HSF1 under the control of a CMV early promoter, a firefly luciferase (flue) gene driven by a promoter responsive to the latter chimeric transcription factor and a Renilla luciferase (rluc) gene functionally linked to an hsp70b promoter and therefore controlled by endogenous HSF1 (FIG. 1A). As is shown in FIGS. 1B & C, the reporter genes responded similarly to heat dose, i.e., their activation depended on both duration of heat exposure and temperature of the exposure. […] Depletion of HSF1 (and LexA-HSF1) by siRNA supported the notion that this stress regulation is mediated by HSF1 (and LexA-HSF1). Therefore, the Z74 line was well suited for use in a screening assay aimed at discovering molecules that inhibit heat-induced HSF1 activity through interaction with the transcription factor's DNA-binding domain.
The compounds of the afore-mentioned biased sublibrary were screened in cell line Z74 at 12.5 and 25 μM concentrations. Typically, Z74 cultures in 96-well plates were exposed to compound or vehicle for 2 h, heat-treated at 43.0° C. for 30 min, and incubated further for 6 h at 37° C. to allow for accumulation of the luciferases. RLuc and FLuc activities were determined, typically using the Dual-Glo® Luciferase Assay System (Promega Corp., Madison, Wis.), and reading luciferase light counts in a Wallac Microbeta Trilux-1450 Luminometer (PerkinElmer, Waltham, Mass.). IHSF 001 was one of two library compounds that inhibited RLuc expression but not FLuc expression in heat-treated Z74 cells (Table 1; FIG. 2A). Therefore, IHSF 001 is an inhibitor of HSF1 function that specifically acts through the HSF1 DNA-binding domain. […] A corroborating experiment utilized a cell line containing an hsp70b promoter-driven fluc gene. […] IHSF 001 is (E)-ethyl 4-oxo-4-(thiazol-2-ylamino)but-2-enoate. The compound can be obtained from commercial sources (e.g., AKE-PB-90340538, Akos).
(In general: Reporter assays use an easily measured gene product as a stand-in for the process of interest.)

The next test concerns the target T2, HSE DNA-binding activity (Homo sapiens, UniProt Q00613).
T2 construct: functionally linked to an hsp70b promoter and therefore controlled by endogenous HSF1; endogenous in cells; host or cells: HeLa cells / HeLa-derived cell line Z74
T2 sequence (Q00613 1-529): T1 sequence (Q00613 1-529)
The test can be described thus: EMSA using extracts of heat-treated HeLa cells, in the presence of IHSF. It counts as biochemical. As to conditions: extracts of HeLa cells heat-treated at 43° C. for 30 min; concentrations as high as about 0.5 mM. As for the experimental part:
Electrophoretic mobility shift assays (EMSA) using a radiolabeled HSE DNA probe were carried out to assess HSF1 DNA-binding activity in extracts of heat-treated (43° C./30 min) HeLa cells that had been exposed to different concentrations of compounds 058 or 115 (FIG. 3A, top panels). […] HSF1 degradation correlated well with the observed decrease in DNA-binding activity. Therefore, HSF1 degradation provides a sufficient explanation for the reduced HSE DNA-binding activity in cells treated with IHSF 058. […] EMSA were also carried out using extracts of HeLa cells that had been heat-treated at 43° C. for 30 min.

`CCOC(=O)/C=C/C(=O)Nc1ncc(C#N)s1` [IHSF 057, (E)-3-(5-Cyano-thiazol-2-ylcarbamoyl)-acrylic acid ethyl ester]: at HSF1, the inhibition (as a rule, the share of the control response that was lost under treatment) at 12.5 µM was found to be 40% and the inhibition at 25 µM came to 65%. Also, the “HSE DNA-binding activity (EMSA) in the presence of IHSF” value (“HSE DNA-binding activity (EMSA)” below) at HSE DNA-binding activity was “no reduction”.

On to `CCOC(=O)/C=C/C(=O)Nc1ccnc(-c2ccccc2)c1` [IHSF 049, (E)-3-(2-Phenyl-pyridin-4-ylcarbamoyl)-acrylic acid ethyl ester], for which, at HSF1, the inhibition at 12.5 µM stood at 53% and the inhibition at 25 µM was 85%. For the same molecule, at HSE DNA-binding activity, the “HSE DNA-binding activity (EMSA)” value is listed as “no reduction”.

Take `CCOC(=O)/C=C/C(=O)Nc1ncc(-c2ccccc2C)s1` [IHSF 059, (E)-3-(5-o-Tolyl-thiazol-2-ylcarbamoyl)-acrylic acid ethyl ester]: on HSF1, the IC50 – broadly, the concentration that gives 50% inhibition – was determined as 14.7 µM; the inhibition at 12.5 µM was 45%; the inhibition at 25 µM was 72%. Further, the “HSE DNA-binding activity (EMSA)” value on HSE DNA-binding activity was “no reduction”.

Regarding `CCOC(=O)/C=C/C(=O)Nc1ccnc2ccccc12` [IHSF 050, (E)-3-(Quinolin-4-ylcarbamoyl)-acrylic acid ethyl ester], at HSF1, the inhibition at 12.5 µM is 40% and the inhibition at 25 µM stood at 61%. Also, the “HSE DNA-binding activity (EMSA)” value at HSE DNA-binding activity is given as “no reduction”.

Consider `CCOC(=O)/C=C/C(=O)Nc1nc(C)cs1` [IHSF 011, (E)-3-(4-Methyl-thiazol-2-ylcarbamoyl)-acrylic acid ethyl ester], for which, on HSF1, the IC50 amounted to 7 µM, the inhibition at 12.5 µM came to 69% and the inhibition at 25 µM was determined as 83%. Besides, the “HSE DNA-binding activity (EMSA)” value on HSE DNA-binding activity is recorded as “no reduction”.

Take `CCOC(=O)/C=C/C(=O)Nc1nc(C)c(C)s1` [IHSF 052, (E)-3-(4,5-Dimethyl-thiazol-2-ylcarbamoyl)-acrylic acid ethyl ester]: on HSF1, the half-maximal inhibitory concentration (IC50) is 7.4 µM, the inhibition at 12.5 µM is 57% and the inhibition at 25 µM was determined as 71%. Also, the “HSE DNA-binding activity (EMSA)” value on HSE DNA-binding activity is “no reduction”.
